In patent US20250171430A1, “PYRAZOLYL COMPOUNDS AS KV7 CHANNEL ACTIVATORS” (Biohaven Therapeutics Ltd., priority 2022, published 2025):

target: T1, Kv7.2/7.3 (Homo sapiens, UniProt O43525+O43526); experiment: Kv7.2/7.3 Activation Assay (Thallium Flux Assay); type: cell-based; details: hKV7.2/7.3 cell line; test compound at single concentration of 10 μM; fluorescence at 90 sec normalized to positive control (retigabine, 30 μM)
T1 construct: Kv7.2 tetracycline-induced, Kv7.3 constitutive
Excerpt: The Thallium Flux Assay is used as a surrogate indicator of potassium channel activity.
The experimental protocol was adapted from the FluxOR™ II Green Potassium Ion Channel Assay User Guide (Pub. No. MAN0016084, Invitrogen). Conditions were optimized for the Kv7.2/7.3 cell line.
Cell Line: The hKV7.2/7.3 cell line was obtained from Chantest (cat. #CT6147).
Cell Culture: Kv7.2/7.3 cells were maintained in a media containing DMEM/F12; 50/50 (Fisher 11-330), 10% Fetal Bovine Serum (FBS) (Fisher 26-140), 100 units/mL Penicillin-Streptomycin (Fisher 15-140), 0.005 mg/ml Blasticidin (InvivoGen ant-bl-1), 0.5 mg/mL Geneticin (InvivoGen ant-gn-5), and 0.1 mg/mL Zeocin (Fisher R25001). One day prior to experimentation, cells were plated in 96 well clear bottom plates (Corning cat. #353219) in a media without Blasticidin, Geneticin, or Zeocin. In this cell line Kv7.3 channel expression is controlled by a constitutive promoter. Kv7.2 channel expression was induced by adding tetracycline (Sigma T7660) at a final concentration of 10 ng/mL overnight in a cell culture incubator at 37° C. and 5% CO2. On the day of assay, the cell culture medium in the 96-well plates was replaced by assay buffer containing the thallium-sensitive fluorescent sensor, FluxOR II Green prepared according to manufacturer's instructions. The 96-well plates were then incubated for 1 h at 37° C. Following the incubation, the FluxOR II Green-containing solution was replaced with extracellular solution.
Test Compound Plates: The test compound is diluted in a mixture of 0.1% DMSO/extracellular solution at a single concentration of 10 μM. Dilutions were made on a Biomek NXP (BECKMAN COULTER). Extracellular solution contained (in mM: 145 NaCl, 4 KCl, 2 CaCl2), 1 MgCl2, 10 HEPES, and 10 Glucose, pH 7.4).
Measurement and data analysis: Thallium-flux-mediated changes in intracellular fluorescence were made using a plate reader (Enspire, Perkin Elmer) set with an excitation wavelength of 475 nm and an emission wavelength of 530 nm. After a 15 sec baseline measurement, the stimulus buffer containing thallium and potassium was added to the 96-well plate containing FluxOR II Green-loaded cells and test compounds. Fluorescence values at 90 sec were normalized to the positive control (retigabine, 30 μM) and test compound activities were assigned categories according to the formula: “No Activity <0.15, “+” Moderate Activity 0.15-0.7, and “++” High Activity >0.7.

| SMILES | Kv7.2/7.3 Activity |
| --- | --- |
| Cn1nc(NC(=O)CC2(C(F)(F)F)CC2)c(C2CCC2)c1-c1ccc(OC(F)(F)F)cc1 [Compound 31, N-(4-cyclobutyl-1-methyl-5-(4-(trifluoromethoxy)phenyl)-1H-pyrazol-3-yl)-2-(1-(trifluoromethyl)cyclopropyl)acetamide] | ++ (“++” High Activity ≥ 0.7) |
| Cn1nc(NC(=O)C[C@@H]2CC(F)(F)C2(F)F)c(C2CCC2)c1C(F)(F)c1ccccc1 [Compound 32, (R)-N-(4-cyclobutyl-5-(difluoro(phenyl)methyl)-1-methyl-1H-pyrazol-3-yl)-2-(2,2,3,3-tetrafluorocyclobutyl)acetamide] | ++ (“++” High Activity ≥ 0.7) |
| Cn1nc(NC(=O)C[C@H]2CC(F)(F)C2(F)F)c(C2CCC2)c1-c1ccc(OC(F)(F)F)cc1 [Compound 33, (S)-N-(4-cyclobutyl-1-methyl-5-(4-(trifluoromethoxy)phenyl)-1H-pyrazol-3-yl)-2-(2,2,3,3-tetrafluorocyclobutyl)acetamide] | ++ (“++” High Activity ≥ 0.7) |
| Cn1nc(NC(=O)C[C@H]2CC(F)(F)C2(F)F)c(C2CCC2)c1-c1ccc(C(C)(C)O)cc1 [Compound 34, (S)-N-(4-cyclobutyl-5-(4-(2-hydroxypropan-2-yl)phenyl)-1-methyl-1H-pyrazol-3-yl)-2-(2,2,3,3-tetrafluorocyclobutyl)acetamide] | + (“+” Moderate Activity 0.15-0.7) |
| Cn1nc(NC(=O)C[C@H]2CC(F)(F)C2(F)F)c(C2CCC2)c1-c1ccc(C(F)(F)F)cn1 [Compound 35, (S)-N-(4-cyclobutyl-1-methyl-5-(5-(trifluoromethyl)pyridin-2-yl)-1H-pyrazol-3-yl)-2-(2,2,3,3-tetrafluorocyclobutyl)acetamide] | + (“+” Moderate Activity 0.15-0.7) |
| Cn1nc(NC(=O)CC2(C(F)(F)F)CC2)c(C2CCC2)c1-c1ccc(C(F)(F)F)cn1 [Compound 36, N-(4-cyclobutyl-1-methyl-5-(5-(trifluoromethyl)pyridin-2-yl)-1H-pyrazol-3-yl)-2-(1-(trifluoromethyl)cyclopropyl)acetamide] | − (“−” No Activity < 0.15) |
| Cn1nc(NC(=O)C[C@@H]2CC(F)(F)C2(F)F)c(CC(F)(F)F)c1-c1ccccc1 [Compound 37, (R)-N-(1-methyl-5-phenyl-4-(2,2,2-trifluoroethyl)-1H-pyrazol-3-yl)-2-(2,2,3,3-tetrafluorocyclobutyl)acetamide] | ++ (“++” High Activity ≥ 0.7) |
| Cn1nc(NC(=O)C[C@H]2CC(F)(F)C2(F)F)c(CC(F)(F)F)c1-c1ccccc1 [Compound 38, (S)-N-(1-methyl-5-phenyl-4-(2,2,2-trifluoroethyl)-1H-pyrazol-3-yl)-2-(2,2,3,3-tetrafluorocyclobutyl)acetamide] | ++ (“++” High Activity ≥ 0.7) |
| Cn1nc(NC(=O)C[C@H]2CC(F)(F)C2(F)F)c(C2CCC2)c1C(F)(F)c1ccccc1 [Compound 39, (S)-N-(4-cyclobutyl-5-(difluoro(phenyl)methyl)-1-methyl-1H-pyrazol-3-yl)-2-(2,2,3,3-tetrafluorocyclobutyl)acetamide] | ++ (“++” High Activity ≥ 0.7) |
| Cn1nc(NC(=O)C[C@H]2CC(F)(F)C2(F)F)c(C2CC(F)(F)C2)c1-c1ccc(OC(F)(F)F)cc1 [Compound 40, (S)-N-(4-(3,3-difluorocyclobutyl)-1-methyl-5-(4-(trifluoromethoxy)phenyl)-1H-pyrazol-3-yl)-2-(2,2,3,3-tetrafluorocyclobutyl)acetamide] | ++ (“++” High Activity ≥ 0.7) |
| Cn1nc(NC(=O)CC2(C(F)(F)F)CC2)c(C2CC(F)(F)C2)c1-c1ccc(OC(F)(F)F)cc1 [Compound 42, N-(4-(3,3-difluorocyclobutyl)-1-methyl-5-(4-(trifluoromethoxy)phenyl)-1H-pyrazol-3-yl)-2-(1-(trifluoromethyl)cyclopropyl)acetamide] | + (“+” Moderate Activity 0.15-0.7) |
